Reference: PMC9410094 (Marine Drugs, 2022)
≈ marks a conversion by molar mass, not a printed value. Positions of bridges follow the written chain, without caps; N, C: chain ends. Residues, ends and D or L forms follow the SMILES beside them.

Assays:
E. coli ML-35p = system: E. coli ML-35p
Method: Initially, antimicrobial activity of abarenicin and UuBRI-21 was evaluated against the reference strain of E. coli (ML-35p) under various conditions (Table 1). Minimal inhibitory concentrations (MICs) were determined via two-fold serial dilutions in 96-well polystyrene plates. Serial dilutions were made in 0.1% bovine serum albumin (BSA) to minimize the absorption of peptides on the surface of plate wells. Mueller–Hinton broth (MHB) supplemented with 0.9% NaCl was used as the standardized medium.
(§1) Bacterial cultures were grown in MHB at 37 °C until the culture reached an optical density OD600 of 1.0 and diluted with the broth so that to reach a final cell concentration of 10^6 CFU/mL. Then 50 μL of the test culture were added to 50 μL of aqueous solutions of the peptides, previously diluted in 0.1% sterilized bovine serum albumin (BSA) to reduce non-specific binding of the peptides to the surface of the plates. Next, the plate was incubated for 24 h at 37 °C and 950 rpm on the plate thermoshaker (Biosan). The values of the minimum inhibitory concentrations (MIC) were determined as the minimum concentration of the peptide, at which there is no culture growth. The results were expressed as the median values of three independent experiments performed in triplicate.

E. coli ATCC 25922 [1] = type: cell-based; conditions: MHB + 0.9% NaCl, 0.1% BSA, 24 h, 37 °C; median of three independent experiments
Gram-negative bacteria = experiment: Geometric mean of MICs, Gram-negative panel; type: cell-based; conditions: geometric mean (GM) of MICs against the 14 Gram-negative strains of Figure 2
Method: as §1, with “The antimicrobial activity of the peptides was determined via the method of two-fold serial dilutions in sterile 96-well flat-bottom polystyrene microplates (Eppendorf #0030730011) in Mueller–Hinton broth (MHB, Sigma, Kawasaki, Kanagawa, Japan) supplemented with 0.9% NaCl. Bacterial” for “Bacterial”

Gram-positive bacteria = type: cell-based; conditions: 24 h
Method: as §1, with “The antimicrobial activity of the peptides was determined via the method of two-fold serial dilutions in sterile 96-well flat-bottom polystyrene microplates (Eppendorf #0030730011) in Mueller–Hinton broth (MHB, Sigma, Kawasaki, Kanagawa, Japan) supplemented with 0.9% NaCl. Bacterial” for “Bacterial”

human red blood cells = type: cell-based
Method: Figure 4 (A) Hemolytic effect on human red blood cells after 2 h incubation (hemoglobin release assay). (B) Cytotoxicity toward transformed human embryonic kidney cells after 20 h incubation (MTT-assay). The positive control used was 0.1% Triton X-100 and sterile PBS as a negative control. Melittin was used as an additional positive control. The data are presented as the mean ± SD of three independent experiments.
The hemolytic activity of compounds was performed using human red blood cells (hRBS) of healthy donor. Fresh blood was centrifuged to separate the erythrocyte fraction for 15 min at 500 g and washed three times with cold phosphate-buffered saline (PBS) (pH 7.4), after which an 8% (v/v) suspension of erythrocytes in PBS was prepared. Then, 50 µL of erythrocyte suspension was added to the test peptides, previously were dissolved in 50 µL of 0.1% BSA. The plate was incubated for 1.5 h at 37 °C and 950 rpm on the plate thermoshaker. After incubation, the plates were centrifuged for 15 min at 1000 g to settle intact erythrocytes. Next, aliquots of the supernatant were transferred to another plate to measure the amount of hemoglobin release by the absorbance of the solution at 405 nm. As “zero lysis” we used the supernatant obtained after centrifugation of erythrocytes incubated in a PBS solution without the addition of a peptide. As “100% lysis”, we used the supernatant obtained after centrifugation of erythrocytes incubated in a 0.1% Triton X-100, causing their complete lysis. The assays were conducted three times. The quantitative data were presented as an average means with standard deviations. Hemolysis(%)=OD405(compound)−OD405(zerolysis)/OD405(100%lysis)−OD405(zerolysis)×100%

in vitro = conditions: male, human, 25% fresh human serum, pH 7.4
Method: After incubation, serum proteins were selectively precipitated from the mixture by adding 10% TFA in the presence of 3 M urea. […] Two independent experiments in duplicate were performed for each peptide.

[2] = RP-HPLC retention time as measure of hydrophobicity; type: physicochemical; conditions: chromatographic, semipreparative RP-HPLC, C18 column, linear gradient 5 to 80% (v/v) acetonitrile in water with 0.1% TFA within 50 minutes; used as measure of hydrophobicity
Method: Table S1. Characteristics of the recombinant AMPs.
1 Mean Kyte–Doolittle hydrophobicity index (GRAVY) was calculated using the Expasy ProtParam tool. The maximum and minimum values of this index are +4.5 and -4.5 for poly-Ile and poly-Arg sequences, respectively. 2 Retention times were measured using semipreparative reversed-phase high-performance liquid chromatography (RP - HPLC) on a C18 column with a linear gradient from 5 to 80% ( v/v) acetonitrile in water containing 0.1% trifluoroacetic […]
acid (TFA) within 50 minutes. […]

P. aeruginosa PAO1 = experiment: Inhibition of biofilm formation, crystal violet; type: cell-based; conditions: 24 h, LB, 32 °C
Excerpt: Such an adaptive and survival mechanism is mediated by biofilms, which constitutes the community of sessile bacteria embedded within the self-produced extracellular polymeric substance (EPS) that defends them from chemical, biological, and physical stress; it also […] foreign invaders. Besides the fact that EPS decreases concentration of antibiotics, bacteria inside biofilm are characterized by a reduced rate of cell divisions, an increased expression of stress response genes, an occurrence of persistent cells, and exchange of resistance genes leading to a broader spread of tolerant biofilm-growing bacteria. For the treatment of biofilm-associated infections a high concentration of antibiotics is required that also increases toxicity toward human cells. Antimicrobial peptides are able to act on certain stages of biofilm formation and various molecular targets and are considered as promising candidates for the development of new antibiofilm agents. […] Bacterial biomass amount was evaluated using the standard crystal violet assay over a 24 h incubation period with each drug. […]
Masses of biofilms were evaluated by dying with 0.1% CV. […]
The ability of peptides to influence the formation of biofilms was evaluated by the method of two-fold serial dilutions in a liquid nutrient medium. […] Further, the extracts were transferred to a new plate and absorption was measured at 570 nm. […]

E. coli 3421/E19 = experiment: Neutropenic mice peritonitis model; type: in vivo, BALB/c mice
Method: Immune-deficient mice were inoculated intraperitoneally (i.p.) with bacterial suspension. Antimicrobial agent was administered 1 h post-infection, and colony counts in blood and peritoneal fluid (PF) were determined 5 h later.
(A) The mice peritonitis model. […] Horizontal bars indicate means ± SD.
Food and water were provided ad libitum.
CFU counts were determined from blood and peritoneal fluid (PF) 5 h after treatment. The mice were euthanized by CO2 asphyxiation and blood was collected by axillary cut down. A total of 2 mL sterile saline was injected i.p. and the abdomen gently massaged before it was opened, fluid sampled with a pipette, serially diluted and placed on Endo agar supplemented with 20 µg/mL of tetracycline for CFU identification.

E. coli ATCC 25922 [3] = experiment: Mice septicemia model, survival; conditions: BALB/c mice, n = 8, E. coli ATCC 25922 i.p. with 2.5% mucin; peptide i.p. 10 mg/kg at 1 and 4 h post-infection; 7 days
Method: Ciprofloxacin (the single dose of 10 mg/kg) and saline were used as the positive and negative controls, respectively. […] Mice were controlled once daily for their health status during 7 post-infection days.
Then, we examined an efficacy of AMPs in the mice septicemia model using 8 animals in a group (Figure 10B).
Experiments were performed with female 8–10-week-old BALB/c mice (22–24 g, “Andreevka” laboratory animal nursery FMBA, Russia). […] All animal experiments were performed at the State Research Center for Applied Microbiology and Biotechnology (SRCAMB) in Obolensk, Russia. The animals were housed in groups of 5 in polycarbonate cages. Food and water were provided ad libitum.
A total of 4 groups with 8 animals were used. The first group received ciprofloxacin (Sigma, Kawasaki, Kanagawa, Japan) administered i.p. once (1 h post-infection) at a dose of 10 mg/kg. The second group received saline (as a vehicle control) administered i.p. once (1 h post-infection). […] Survival was monitored for 7 days. After that survived animals were euthanized by CO2 asphyxiation.

[4] = system: P. aeruginosa PAO1 mature biofilms; experiment: Effect on mature biofilms, viability by MTT; conditions: P. aeruginosa PAO1 pre-formed biofilm, 16 µM, 2-h exposure
Method: Biofilm viability was measured by tetrazolium salt reduction (right panel). Values are presented as means ± the standard deviation (SD) of three independent experiments.
The effect of peptides on pre-formed biofilms was evaluated as follows. Biofilms were grown on a 96-well plate at 32 °C for 24 h and stirred at 120 rpm to ensure biofilm formation primarily on the wall of the wells. […] Bacterial survival in the biofilms after 2-h exposure was evaluated via a MTT assay after incubation with a tested peptide. Then, wells were rinsed with sterile water, treated with an MTT solution (Sigma, Kawasaki, Kanagawa, Japan) in PBS, and incubated for 4 h at 37 °C. Next, the medium was removed. The resulting formazan crystals were dissolved in a mixture of EtOH and DMSO (1:1) for 10 min. The optical density of the solution was measured at 570 nm. Bacterial survival was calculated as percent relative to samples without antimicrobial agent. All data were obtained from at least three independent experiments in 3 repetitions.

[5] = 25% human serum in PBS (pH 7.4) from healthy donor; conditions: 37 °C, up to 24 h

Row | Molecule | Fold reduction of antibacterial activity in the presence of serum (E. coli ML-35p; MHB + 0.9% NaCl with 25% FBS versus without) [fold] | Minimum Inhibitory Concentration, MHB + 0.9% NaCl + 25% FBS (E. coli ML-35p; Table 1, medium with 25% fetal bovine serum) [µM] | Minimum Inhibitory Concentration, MHB + 0.9% NaCl (E. coli ML-35p; Table 1, without FBS, dilutions in 0.1% BSA) [µM] | Minimum inhibitory concentration (MIC): E. coli ATCC 25922 (E. coli ATCC 25922 [1]) [µM] | Minimum inhibitory concentration (MIC): Gram-negative Geometric mean (Gram-negative bacteria) [µM] | Minimum inhibitory concentration (MIC): Gram-positive Geometric mean (Gram-positive bacteria) [µM] | Hemolytic activity (in words) (human red blood cells) | remaining at 2 h, 0.12 mg/mL (in vitro) [%] | RP-HPLC Retention Time [2] [min] | Inhibition of biofilm formation (in words) (P. aeruginosa PAO1) | Bacterial burden in mice blood (in words) (E. coli 3421/E19; neutropenic BALB/c mice, n = 5, i.p. infection, single i.v. dose 1 h post-infection (AMPs 10 mg/kg, polymyxin B 5 mg/kg), CFU 5 h after treatment) | Reduction of the CFU level in peritoneal fluid (PF) (E. coli 3421/E19; neutropenic BALB/c mice, n = 5, single i.v. dose (AMPs 10 mg/kg, polymyxin B 5 mg/kg), CFU 5 h after treatment) | Efficacy in the neutropenic peritonitis model (in words) (E. coli 3421/E19; single i.v. dose of 10 mg/kg, E. coli 3421/E19) | Therapeutic efficacy (survival) after one-week experiment (E. coli ATCC 25922 [3]) [%] | Residual viability of bacteria in mature biofilm [4] | cleaved bond [5]
1 | CC[C@H](C)[C@@H]1NC(=O)[C@H](CCCNC(=N)N)NC(=O)[C@H](C(C)C)NC(=O)CNC(=O)[C@H](CC(N)=O)NC(=O)[C@H](CCCNC(=N)N)NC(=O)[C@H](CC(C)C)NC(=O)[C@H](Cc2ccc(O)cc2)NC(=O)[C@@H]2CSSC[C@H](NC1=O)C(=O)N[C@@H](Cc1ccc(O)cc1)C(=O)N[C@@H](CCCNC(=N)N)C(=O)N[C@@H](CCCNC(=N)N)C(=O)N[C@H](C(=O)N[C@@H](CC(N)=O)C(=O)O)CSSC[C@H](NC(=O)[C@H](Cc1ccc(O)cc1)NC(=O)CN)C(=O)N[C@@H](Cc1ccccc1)C(=O)N[C@@H]([C@@H](C)O)C(=O)N[C@@H](C)C(=O)N2 [Abarenicin] (H-GYCFTACYLRNGVRICYRRCN-OH; disulfide 3-20, 7-16) | 4 | 1 | 0.25 | 0.25 | 0.45 (≈ 1.14 µg/mL) | 2.52 (≈ 6.37 µg/mL) | moderate hemolytic activity | > 90 | 25.77 |  |  |  |  |  |  | 
2 | CC[C@H](C)[C@@H]1NC(=O)[C@H](CCCNC(=N)N)NC(=O)[C@H](C(C)C)NC(=O)CNC(=O)[C@H](CC(N)=O)NC(=O)[C@H](CCCNC(=N)N)NC(=O)[C@H](CCCNC(=N)N)NC(=O)[C@H](C)NC(=O)[C@@H]2CSSC[C@H](NC1=O)C(=O)N[C@@H](Cc1ccc(O)cc1)C(=O)N[C@@H](CCCNC(=N)N)C(=O)N[C@@H](CCCNC(=N)N)C(=O)N[C@H](C(=O)N[C@@H](CC(N)=O)C(=O)O)CSSC[C@H](NC(=O)[C@H](Cc1ccc(O)cc1)NC(=O)CN)C(=O)N[C@@H](Cc1ccccc1)C(=O)N[C@@H]([C@@H](C)O)C(=O)N[C@@H](C)C(=O)N2 [Ap9] |  |  |  |  | 0.26 (≈ 0.645 µg/mL) | 3.17 (≈ 7.86 µg/mL) | insignificant toxicity toward human erythrocytes |  | 25.37 | more effective in biofilm prevention at sub-inhibitory concentration | complete reduction | ~ 5 log | effective | 100 | about 20% | 
3 | GYCFTACYLRNGVRICYRRCN |  |  |  |  |  |  |  |  |  |  |  |  |  |  |  | glycine-Y, major
